Measured values reported in US6211227A, “Tricyclic compounds” (Kyowa Hakko Kogyo Co., Ltd., priority 1997, dated 2001).
Like-named read-outs stand apart in the source and are kept apart here.

Key:
[1] = tested on: bladder; experiment: animal or person; conditions: Rattus norvegicus, po, read-out: Contraction interval
Description: Male SD strain rats (200-300 g) were used as test animals. Each animal was anesthetized by intraperitoneally administering 50 mg/kg Nembutal. The hair on the abdomen, the thigh, and the back of the neck was shaved, followed by disinfection with 70% ethanol. The left femoral artery of the rat was exposed by incising the thigh for the insertion of a catheter into the femoral artery. A catheter filled with physiological saline containing heparin (1000 units/ml) was introduced approximately 2-3 cm into the artery so that its tip resided in the abdominal artery. The distal end of the catheter was exteriorized at the nape of the neck, sealed, and fixed on the skin tightly. A bladder catheter was implanted according to the method of Yaksh, et al., [Am. J. Physiol., vol.251, R1177-1185 (1986)]. The bladder was exposed through a midline abdominal incision. The bladder dome was given a small incision to make a small hole. A catheter filled with physiological saline was placed into the bladder and secured with a silk ligature. The other end of the catheter was exteriorized at the nape of the neck after being passed under the skin using a trocar. The exposed end of the catheter was sealed and fixed on the skin tightly. The abdominal muscles and skin were sutured, and the test animal was recovered from anesthesia.
The rat was weighed 24-48 hours after the operation. Each rat was placed in a Bollman cage (NATSUME SEISAKUSHO), and the test was done under partial restraint. The arterial catheter was connected to a pressure transducer (NIHON KODEN DX-300) used for the measurement of blood pressure. The bladder catheter was connected to a sylinge pump for physiological saline infusion and to a pressure transducer with PE50 tubing and a three-way stop-cock. Intravesical physiological saline infusion (0.05 ml/minute) was started and continued during the test. The changes of blood pressure, heart rate, and intravesical pressure were recorded with a polygraph (NIHON KODEN). The test animal was allowed to equilibration (for ca. 60-120 minutes) until its micturition pattern became constant. At this point, a basal value of each test parameter was recorded, and the rat was compulsorily given a test compound (in 0.3% carboxymethyl cellulose-physiological saline) at a dose of 1 mg/kg (body weight) by oral administration. […] As a control compound, cromakalim was used. The contraction interval, the systemic blood pressure, and the heart rate were measured for 5 hours after the administration of the compound at one-hour intervals and were expressed as the relative values based on the pre-administration values which were regarded as 100.

[2] = tested on: detrusor muscle (isolated urinary bladder strips); experiment: Relaxation of contraction induced by 50 mmol/l KCl in isolated urinary bladder strips (Test Example 1); design: species or system guinea pig (male albino Hartley); conditions: Cavia porcellus, 0.5 h; KCl 50 mmol/l; cumulative, contact time 30 minutes; 50% relaxant of maximum response
Text: (§1) The activity of Compounds (I) as therapeutic agents for pollakiuria and urinary incontinence is described below. In the following Test Examples 1 and 2, IC50 value was defined as the concentration at which a test compound produces 50% relaxant of maximum response of detrusor muscle.
(§2) Male albino Hartley guinea pigs (350-550 g) were used as test animals. Each animal was exsanguinated to death under sodium pentobarbital anesthesia. The lower abdominal cavity was opened and its bladder was positioned. The connective tissue and the fat tissue around the bladder were removed, and the bladder was washed. After bilateral pelvic nerves on the surface of the abdominal side of the bladder were dissected, the bladder was taken out on the entrance of ureter. The bladder was washed with a Krebs-Henseleit buffer [composition (mM): NaCl 118, KCl 4.7, MgSO4 1.2, KH2 PO4 1.2, CaCl2 2.5, NaHCO3 25, and D-glucose 11.1], and then put on a gauze patch soaked in the buffer in a Petri dish. The dome and the trigone of the bladder were cut away. The back of the bladder was cut vertically in the middle with scissors, and the bladder was put flat on the gauze patch. The mucosa of the bladder was removed. The back of the bladder was cut vertically to get 6 strips which are ca. 2.0 mm wide and ca. 10 mm long.
(§3) Each strip was tied at one end to plastic rod and placed in a 20 ml organ bath containing a Krebs-Henseleit solution which was maintained at 37° C. and bubbled vigorously with a gas mixture of 5% CO2 and 95% O2. The pH of the solution was adjusted to about 7.4. The other end of the strip was tied via silk thread to a force displacement transducer (NIHON KODEN TB-611T). The transducer was connected to a polygraph (NIHON KODEN AP-621G), and the changes in tension were recorded on a recorder (YOKOGAWA type 3066). The polygraph was graduated by 0.5 g/cm.
After the tissue was incubated in the buffer for 15 minutes without preloading, tension was added thereto for about one hour. The preloading tension added was 1.5 g and it was relaxed to about 1 g. The strips were allowed to equilibrate until their contractions became constant and tension was adjusted to 1 g. After this equilibrium period, 50 mmol/l KCl (the whole content in the bath) was added, and the tissue was washed 10 minutes later. KCl was added to the tissue at intervals of 30 minutes, followed by washing 10 minutes later, and KCl was applied repeatedly until the developed tension induced by KCl becomes constant. When the tissue was confirmed to contract constantly by the application of KCl and relax to the steady state after washing, 50 mmol/l KCl was applied again. After the tissue reached the steady state and the base line was obtained, a test compound was applied by the cumulative method (half-logarithmic increment). The contact time at each concentration was 30 minutes. The activity of the compound was expressed as the maximum relaxation rate (%) against the tension induced by the agonist.

[3] = tested on: detrusor muscle (isolated urinary bladder strips); experiment: Relaxation of rhythmic contraction induced by 15 mmol/l KCl in isolated urinary bladder strips (Test Example 2); design: species or system guinea pig (male albino Hartley); conditions: Cavia porcellus; KCl 15 mmol/l; cumulative, contact time 15-30 minutes; 50% relaxant of maximum response
Text: as §1, §2, §3
Isolated urinary bladder strips were prepared in the same manner as in Test Example 1, and the tension of the preparation was measured. After the tension of the tissue was adjusted to be a steady state at 1 g, 15 mmol/l KCl was applied. After the rhythmic contraction was confirmed to appear by KCl, the tissue was washed. Then, 15 mmol/l KCl was applied again. After the rhythmic contraction induced by KCl became constant, a test compound was applied by the cumulative method (half-logarithmic increment). The contact time at each concentration was 15-30 minutes. The activity of the compound was expressed as the maximum relaxation rate (%) against the tension induced by the agonist.

Row | Structure (SMILES) | response vs control in vivo at 1 mg/kg ([1]; 1 h) [%] | response vs control in vivo at 10 mg/kg ([1]; 1 h) [%] | response vs control in vivo at 1 mg/kg ([1]; 2 h) [%] | response vs control in vivo at 10 mg/kg ([1]; 2 h) [%] | response vs control in vivo at 1 mg/kg ([1]; 3 h) [%] | response vs control in vivo at 10 mg/kg ([1]; 3 h) [%] | response vs control in vivo at 1 mg/kg ([1]; 4 h) [%] | response vs control in vivo at 10 mg/kg ([1]; 4 h) [%] | response vs control in vivo at 1 mg/kg ([1]; 5 h) [%] | response vs control in vivo at 10 mg/kg ([1]; 5 h) [%] | IC50 [2] [µM] | IC50 [3] [µM] | response vs control in vivo at 0.1 mg/kg ([1]; 1 h) [%] | response vs control in vivo at 0.1 mg/kg ([1]; 2 h) [%] | response vs control in vivo at 0.1 mg/kg ([1]; 3 h) [%] | response vs control in vivo at 0.1 mg/kg ([1]; 4 h) [%] | response vs control in vivo at 0.1 mg/kg ([1]; 5 h) [%] | also measured
1 | CC(O)(C(=O)Nc1cccc2c1C(=O)c1sccc1CS2(=O)=O)C(F)(F)F (stereo not drawn) [Compound 1-1, 5,5-Dioxo-9-(3,3,3-trifluoro-2-hydroxy-2-methylpropanoylamino)-4,10-dihydrothieno[3,2-c][1]benzothiepin-10-one] | 138 ± 15 | 124 ± 4 | 166 ± 16 | 139 ± 9 | 170 ± 6 | 154 ± 14 | 181 ± 16 | 176 ± 13 | 203 ± 21 | 190 ± 15 | > 10 | 2.6 | – | – | – | – | – | –
2 | C[C@](O)(C(=O)Nc1cccc2c1C(=O)c1sccc1CS2(=O)=O)C(F)(F)F [Compound 1-25, (S)-(+)-5,5-Dioxo-9-(3,3,3-trifluoro-2-hydroxy-2-methylpropanoylamino)-4,10-dihydrothieno[3,2-c][1]benzothiepin-10-one] | – | 133 ± 15 | – | 128 ± 10 | – | 149 ± 19 | – | 180 ± 22 | – | 183 ± 14 | 10.5 | 2.6 | 108 ± 9 | 140 ± 9 | 140 ± 12 | 148 ± 13 | 163 ± 17 | response vs control in vivo at 3 mg/kg ([1]; 1 h): 129 ± 8%; response vs control in vivo at 3 mg/kg ([1]; 2 h): 125 ± 14%; response vs control in vivo at 3 mg/kg ([1]; 3 h): 143 ± 22%; response vs control in vivo at 3 mg/kg ([1]; 4 h): 165 ± 22%; response vs control in vivo at 3 mg/kg ([1]; 5 h): 161 ± 13%
3 | CC(O)(C(=O)Nc1cccc2c1C(=O)c1ccccc1CS2(=O)=O)C(F)(F)F (stereo not drawn) [Compound 1-3, 5,5-Dioxo-1-(3,3,3-trifluoro-2-hydroxy-2-methylpropanoylamino)-6,11-dihydrodibenzo[b,e]thiepin-11-one] | 123 ± 15 | – | 135 ± 11 | – | 144 ± 10 | – | 160 ± 19 | – | 160 ± 16 | – | > 10 | 6.3 | – | – | – | – | – | –
4 | CC(O)(C(=O)Nc1ccc2c(c1)S(=O)(=O)Cc1ccsc1C2=O)C(F)(F)F (stereo not drawn) [Compound 1-2, 5,5-Dioxo-7-(3,3,3-trifluoro-2-hydroxy-2-methylpropanoylamino)-4,10-dihydrothieno[3,2-c][1]benzothiepin-10-one] | 116 ± 8 | – | 136 ± 5 | – | 149 ± 9 | – | 143 ± 5 | – | 139 ± 6 | – | > 10 | 5.1 | – | – | – | – | – | –
5 | O=C1c2ccc(NC(=O)C(F)(F)F)cc2S(=O)(=O)Cc2ccsc21 [Compound 3-5, 5,5-Dioxo-7-trifluoroacetylamino-4,10-dihydrothieno[3,2-c][1]benzothiepin-10-one] | 131 ± 12 | – | 152 ± 4 | – | 145 ± 18 | – | 157 ± 13 | – | 158 ± 4 | – | 8.7 | 8.3 | – | – | – | – | – | –
6 | C[C@@](O)(C(=O)Nc1cccc2c1C(=O)c1sccc1CS2(=O)=O)C(F)(F)F [Compound 1-26, (R)-(-)-5,5-Dioxo-9-(3,3,3-trifluoro-2-hydroxy-2-methylpropanoylamino)-4,10-dihydrothieno [3,2-c][1]benzothipin-10-one] | – | – | – | – | – | – | – | – | – | – | 6.3 | 6.6 | 118 ± 8 | 137 ± 7 | 145 ± 7 | 152 ± 8 | 168 ± 7 | –
